Source: patent publication US5712367A, “Process for the solubilization of peptides and process for peptide synthesis” (Rhone-Poulenc Chimie, priority 1989, dated 1998)

Columns and labels:
Format in all cases: physicochemical
[1] = Partition coefficient of N-tert-butyloxycarbonylpentaglycine esters between CH2Cl2 and H2O
[2] = Solubility of N-tert-butyloxycarbonylpentaglycine esters (CH3)3COCO(NHCH2CO)5OR in anisole, CH2Cl2 and H2O; settings: for Solubility in g/100 cm^3 CH2 Cl2: solvent CH2Cl2; for Solubility in g/100 cm^3 H2 O: solvent H2O; for Solubility in g/100 cm^3 anisole: solvent anisole
[3] = Measurement of the solubilities of the molecules of formula (L)-seryl-A--L in water; settings: measured in the filtrate after grinding in water for 15 minutes
Description: Ammonia gas was passed into this solution at room temperature. The ammonium chloride precipitate obtained was rapidly filtered off. […] The product obtained after concentration was immediately ground in water for 15 minutes at room temperature and then filtered off.
The solubility of the product of formula (L)-seryl-A--L was measured in the filtrate.

SMILES	Partition coefficient between CH2 Cl2 and H2 O [1]	Solubility in g/100 cm^3 CH2 Cl2 [2] [g/100 cm^3]	Solubility in g/100 cm^3 H2 O [2] [g/100 cm^3]	Solubility in g/100 cm^3 anisole [2]	solubility in water at 25° C. [3] [mg/mL]
N[C@@H](CO)C(=O)OCc1ccccc1 [L-Serine benzyl ester]					> 100
CC(C)(C)OC(=O)NCC(=O)NCC(=O)NCC(=O)NCC(=O)NCC(=O)OCc1cccc(C(=O)OCc2cccc(Oc3ccccc3)c2)c1 [Example R2]	> 2,000	> 10	0.0008	5 g/100 cm^3	

The remaining lines, values ahead:

Partition coefficient between CH2 Cl2 and H2 O [1]	Solubility in g/100 cm^3 CH2 Cl2 [2] [g/100 cm^3]	Solubility in g/100 cm^3 H2 O [2] [g/100 cm^3]	Solubility in g/100 cm^3 anisole [2]	solubility in water at 25° C. [3] [mg/mL]	SMILES
0.66	0.33	0.50	insoluble		COC(=O)CNC(=O)CNC(=O)CNC(=O)CNC(=O)CNC(=O)OC(C)(C)C [CH3]
> 1,000	> 10	0.0016	5 g/100 cm^3		CC(C)(C)OC(=O)NCC(=O)NCC(=O)NCC(=O)NCC(=O)NCC(=O)OCc1cccc(C(=O)OCc2ccc(-c3ccccc3)cc2)c1 [Example R1]
4.1	0.070	0.017	insoluble		CC(C)(C)OC(=O)NCC(=O)NCC(=O)NCC(=O)NCC(=O)NCC(=O)OCc1ccccc1 [benzyl]
